Legend:
[1] = target: T1, Oxysterols receptor LXR-alpha (Homo sapiens, UniProt Q13133); test: Activity against LXR alpha transiently transfected in HEK293 cells; assay type: cell-based
T1 sequence (Q13133 whole entry): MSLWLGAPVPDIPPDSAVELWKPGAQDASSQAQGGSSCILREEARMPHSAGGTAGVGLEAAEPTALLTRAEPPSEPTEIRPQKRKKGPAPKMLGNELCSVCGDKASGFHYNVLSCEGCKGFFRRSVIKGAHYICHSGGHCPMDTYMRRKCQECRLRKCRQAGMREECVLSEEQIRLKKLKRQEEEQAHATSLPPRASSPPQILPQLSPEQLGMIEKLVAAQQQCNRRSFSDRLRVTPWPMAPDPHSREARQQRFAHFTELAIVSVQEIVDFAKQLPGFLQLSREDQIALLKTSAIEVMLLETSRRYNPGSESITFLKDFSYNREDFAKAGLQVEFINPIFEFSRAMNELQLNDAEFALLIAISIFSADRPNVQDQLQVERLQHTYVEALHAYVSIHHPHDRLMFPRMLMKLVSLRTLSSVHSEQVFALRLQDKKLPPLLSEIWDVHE

[2] = AUC in mice at 5 mg/kg, po; assay type: ADME, organism-based; parameters: dose 5 mg/kg, route oral; details: mouse, plasma
[3] = AUC in Sprague-Dawley rat at 5 mg/kg, po; assay type: ADME, organism-based; parameters: dose 5 mg/kg, route oral; details: plasma
[4] = Half life in mice at 5 mg/kg, po; assay type: ADME, organism-based; parameters: dose 5 mg/kg, route oral; details: mouse, in vivo
[5] = Half life in dog at 5 mg/kg, po; assay type: ADME, organism-based, Canis lupus familiaris; parameters: dose 5 mg/kg, route oral; details: in vivo
[6] = AUC in dog at 5 mg/kg, po; assay type: ADME, organism-based, Canis lupus familiaris; parameters: dose 5 mg/kg, route oral; details: plasma

## CN(c1ccc(C(O)(C(F)(F)F)C(F)(F)F)cc1)S(=O)(=O)c1cccc(C#N)c1
[1]
  EC50: 20 nM

## CN(C(=O)c1ccc(C(O)(C(F)(F)F)C(F)(F)F)cc1)c1ccccc1
[1]
  EC50: 200 nM

## CN(c1cccc(C(O)(C(F)(F)F)C(F)(F)F)c1)S(=O)(=O)c1ccccc1
[1]
  EC50: 1000 nM

## O=S(=O)(c1ccccc1)N1CCCCc2cc(C(O)(C(F)(F)F)C(F)(F)F)ccc21
[1]
  EC50: 10 nM

## O=S(=O)(c1ccccc1)N1CCOc2cc(C(O)(C(F)(F)F)C(F)(F)F)ccc21
[1]
  EC50: 100 nM

## CN(c1ccc(C(O)(C(F)(F)F)C(F)(F)F)cc1)S(=O)(=O)c1cccc(-c2ccccc2)c1
[1]
  EC50: 30 nM

## CN(c1ccc(C(O)(C(F)(F)F)C(F)(F)F)cc1Cl)S(=O)(=O)c1ccccc1
[1]
  EC50: 200 nM

## O=S(=O)(c1ccccc1)N1CCCc2cc(C(O)(C(F)(F)F)C(F)(F)F)ccc21
[1]
  EC50: 30 nM

## CN(c1ccc(C(O)(C(F)(F)F)C(F)(F)F)cc1)S(=O)(=O)c1cccs1
[1]
  EC50: 600 nM

## O=S(=O)(c1ccccc1)N(CC(F)(F)F)c1ccc(C(O)(C(F)(F)F)C(F)(F)F)cc1 [T091317]
[2]
  AUC: 3420 ng·h/mL
[3]
  AUC: 5920 ng·h/mL
[4]
  half-life: 3 h
[5]
  half-life: 5.8 h
[6]
  AUC: 7300 ng·h/mL

## CN(Cc1ccc(C(O)(C(F)(F)F)C(F)(F)F)cc1)S(=O)(=O)c1ccccc1
[1]
  EC50: 3000 nM

## O=S(=O)(c1ccccc1)N1CCc2cc(C(O)(C(F)(F)F)C(F)(F)F)ccc21
[1]
  EC50: 50 nM

## CN(C(=O)c1ccccc1)c1ccc(C(O)(C(F)(F)F)C(F)(F)F)cc1
[1]
  EC50: 100 nM

## CN(c1ccc(C(O)C(F)(F)F)cc1)S(=O)(=O)c1ccccc1 (stereo unspecified)
[1]
  EC50: > 5000 nM

## CN(c1ccc(C(O)(C(F)(F)F)C(F)(F)F)cc1)S(=O)(=O)c1cccc(S(N)(=O)=O)c1
[1]
  EC50: 80 nM

## CN(c1ccc(C(C)(O)C(F)(F)F)cc1)S(=O)(=O)c1ccccc1 (stereo unspecified)
[1]
  EC50: 5000 nM

## O=S(=O)(Nc1ccc(C(O)(C(F)(F)F)C(F)(F)F)cc1)c1ccccc1
[1]
  EC50: 4000 nM

## CN(c1ccc(C(O)(C(F)(F)F)C(F)(F)F)cc1)S(=O)(=O)c1ccccc1C#N
[1]
  EC50: 700 nM

## O=S(=O)(c1ccccc1)N(c1ccc(C(O)(C(F)(F)F)C(F)(F)F)cc1)C1CCCC1
[1]
  EC50: 8 nM

## CN(c1ccccc1)S(=O)(=O)c1ccc(C(O)(C(F)(F)F)C(F)(F)F)cc1
[1]
  EC50: 100 nM

## CN(c1ccc(C(O)(C(F)(F)F)C(F)(F)F)c(Cl)c1)S(=O)(=O)c1ccccc1
[1]
  EC50: > 5000 nM

## CC(C)COC(=O)N(C)c1ccc(C(O)(C(F)(F)F)C(F)(F)F)cc1
[1]
  EC50: 100 nM

## CN(c1ccc(C(O)(C(F)(F)F)C(F)(F)F)cc1)S(=O)(=O)c1ccc(C#N)cc1
[1]
  EC50: 2000 nM

## CC(C)CN(c1ccc(C(O)(C(F)(F)F)C(F)(F)F)cc1)S(=O)(=O)c1cccs1
[3]
  AUC: 3200 ng·h/mL
[1]
  EC50: 40 nM

## COC(c1ccc(N(C)S(=O)(=O)c2ccccc2)cc1)(C(F)(F)F)C(F)(F)F
[1]
  EC50: 1000 nM

## C[C@H](CC[C@@H]1OC1(C)C)[C@H]1CC[C@H]2[C@@H]3CC=C4C[C@@H](O)CC[C@]4(C)[C@H]3CC[C@]12C [24(S),25-EPOXYCHOLESTEROL]
[1]
  EC50: 500 nM

Reference: ChEMBL document CHEMBL1146053, “Discovery and optimization of a novel series of liver X receptor-alpha agonists” (Bioorg Med Chem Lett, 2006)
